Measured values taken from ChEMBL document CHEMBL5380795, “Design, Synthesis, and Bioactivity Investigation of Cyclic Lipopeptide Antibiotics Containing Eight to Nine Amino Acids” (J Med Chem, 2023).
Values after ≈ are worked out from the molar mass of the structure shown. Active and inactive are the calls of the source. The rule behind the calls is not given here. Bridge positions count the residues as written; N and C are the ends. Square brackets hold non-standard residues; d marks the D form. Peptide text beside a SMILES is read from it. * marks the point of attachment. Decanoyl(3R-OH) = CCCCCCC[C@@H](O)CC(=O)*; X1 = CC[C@H](C)CCCCC(=O)*; dDab = NCC[C@@H](N)C(=O)O; Dab = NCC[C@H](N)C(=O)O

Columns and labels:
Staphylococcus aureus [1] = assay: Antibacterial activity against methicillin resistant Staphylococcus aureus ATCC 33591 assessed as inhibition of bacterial growth incubated for 18 to 24 hrs by broth microdilution method; type: functional; conditions: time 18-24 hrs
Staphylococcus aureus [2] = assay: Antibacterial activity against Staphylococcus aureus ATCC 29213 assessed as inhibition of bacterial growth incubated for 18 to 24 hrs by broth microdilution method; type: functional; conditions: time 18-24 hrs
[3] = system: Staphylococcus epidermidis; assay: Antibacterial activity against methicillin resistant Staphylococcus epidermidis clinical isolate 19-5 assessed as inhibition of bacterial growth incubated for 18 to 24 hrs by broth microdilution method; type: functional; conditions: time 18-24 hrs
[4] = system: Staphylococcus epidermidis; assay: Antibacterial activity against methicillin resistant Staphylococcus epidermidis clinical isolate 19-6 assessed as inhibition of bacterial growth incubated for 18 to 24 hrs by broth microdilution method; type: functional; conditions: time 18-24 hrs
Escherichia coli [5] = assay: Antibacterial activity against Escherichia coli ATCC BAA-2523 assessed as inhibition of bacterial growth incubated for 18 to 24 hrs by broth microdilution method; type: functional; conditions: time 18-24 hrs
Escherichia coli [6] = assay: Antibacterial activity against Escherichia coli NCTC 13353 assessed as inhibition of bacterial growth incubated for 18 to 24 hrs by broth microdilution method; type: functional; conditions: time 18-24 hrs
Escherichia coli [7] = assay: Antibacterial activity against Escherichia coli clinical isolate 19-2 assessed as inhibition of bacterial growth incubated for 18 to 24 hrs by broth microdilution method; type: functional; conditions: time 18-24 hrs
Escherichia coli [8] = assay: Antibacterial activity against KPC producing Escherichia coli ATCC BAA-2340 assessed as inhibition of bacterial growth incubated for 18 to 24 hrs by broth microdilution method; type: functional; conditions: time 18-24 hrs
Klebsiella pneumoniae [9] = assay: Antibacterial activity against carbapenem resistant Klebsiella pneumoniae clinical isolate 19-15 assessed as inhibition of bacterial growth incubated for 18 to 24 hrs by broth microdilution method; type: functional; conditions: time 18-24 hrs
Klebsiella pneumoniae [10] = assay: Antibacterial activity against carbapenem resistant Klebsiella pneumoniae clinical isolate 19-17 assessed as inhibition of bacterial growth incubated for 18 to 24 hrs by broth microdilution method; type: functional; conditions: time 18-24 hrs
Klebsiella pneumoniae [11] = assay: Antibacterial activity against KPC producing Klebsiella pneumoniae ATCC BAA-1705 assessed as inhibition of bacterial growth incubated for 18 to 24 hrs by broth microdilution method; type: functional; conditions: time 18-24 hrs
Pseudomonas aeruginosa [12] = assay: Antibacterial activity against Pseudomonas aeruginosa clinical isolate 19-1 assessed as inhibition of bacterial growth incubated for 18 to 24 hrs by broth microdilution method; type: functional; conditions: time 18-24 hrs
Pseudomonas aeruginosa [13] = assay: Antibacterial activity against carbapenem resistant Pseudomonas aeruginosa clinical isolate 19-3 assessed as inhibition of bacterial growth incubated for 18 to 24 hrs by broth microdilution method; type: functional; conditions: time 18-24 hrs
Pseudomonas aeruginosa [14] = assay: Antibacterial activity against carbapenem resistant Pseudomonas aeruginosa clinical isolate 17-1 assessed as inhibition of bacterial growth incubated for 18 to 24 hrs by broth microdilution method; type: functional; conditions: time 18-24 hrs
Pseudomonas aeruginosa [15] = assay: Antibacterial activity against Pseudomonas aeruginosa ATCC 27853 assessed as inhibition of bacterial growth incubated for 18 to 24 hrs by broth microdilution method; type: functional; conditions: time 18-24 hrs
Acinetobacter baumannii [16] = assay: Antibacterial activity against carbapenem resistant Acinetobacter baumannii clinical isolate 19-8 assessed as inhibition of bacterial growth incubated for 18 to 24 hrs by broth microdilution method; type: functional; conditions: time 18-24 hrs
Acinetobacter baumannii [17] = assay: Antibacterial activity against oxacillinase-27 producing Acinetobacter baumannii NCTC 13304 assessed as inhibition of bacterial growth incubated for 18 to 24 hrs by broth microdilution method; type: functional; conditions: time 18-24 hrs
Escherichia coli [18] = assay: Antibacterial activity against Escherichia coli ATCC 25922 assessed as inhibition of bacterial growth incubated for 18 to 24 hrs by broth microdilution method; type: functional; conditions: time 18-24 hrs
Escherichia coli [19] = assay: Antibacterial activity against Escherichia coli; type: functional
Pseudomonas aeruginosa [20] = assay: Antibacterial activity against Pseudomonas aeruginosa; type: functional
Klebsiella pneumoniae [21] = assay: Antibacterial activity against Klebsiella pneumoniae; type: functional
Acinetobacter baumannii [22] = assay: Antibacterial activity against Acinetobacter baumannii; type: functional
[23] = Cytotoxicity against human HK-2 cells assessed as inhibition of cell growth incubated for 72 hrs by CCK-8 assay; type: toxicity, cell-based
[24] = Selectivity index, ratio of IC50 for cytotoxicity against human HK-2 cells to MIC for antibacterial activity against Escherichia coli ATCC BAA-2523; type: toxicity, cell-based
[25] = Plasma protein binding in human at 2 uM incubated for 6 hrs by equilibrium dialysis based LC-MS/MS analysis; type: ADME, cell-free; conditions: read-out: PPB (converted)
Staphylococcus aureus [26] = assay: Antibacterial activity against Staphylococcus aureus; type: functional
[27] = system: Staphylococcus epidermidis; assay: Antibacterial activity against Staphylococcus epidermidis; type: functional
Candida albicans = assay: Antifungal activity against Candida albicans; type: functional
Cell membrane = assay: Induction of outer membrane permeabilization in Escherichia coli ATCC 25922 assessed as increase in fluorescence at 1 to 16 ug/ml measured after 3 mins by NPN-dye based assay; type: subcellular; conditions: dose 1-16 µg/ml

Row | SMILES | MIC (Staphylococcus aureus [1]) | MIC (Staphylococcus aureus [2]) | MIC [3] | MIC [4] | MIC (Escherichia coli [5]) | MIC (Escherichia coli [6]) | MIC (Escherichia coli [7]) | MIC (Escherichia coli [8]) | MIC (Klebsiella pneumoniae [9]) | MIC (Klebsiella pneumoniae [10]) | MIC (Klebsiella pneumoniae [11]) | MIC (Pseudomonas aeruginosa [12]) | MIC (Pseudomonas aeruginosa [13]) | MIC (Pseudomonas aeruginosa [14]) | MIC (Pseudomonas aeruginosa [15]) | MIC (Acinetobacter baumannii [16]) | MIC (Acinetobacter baumannii [17]) | MIC (Escherichia coli [18]) | MIC (Escherichia coli [19]) | MIC (Pseudomonas aeruginosa [20]) | further results
1 | CC[C@H](C)CCCCC(=O)N[C@@H](CCN)C(=O)N[C@H](C(=O)N[C@@H](CCN)C(=O)N[C@H]1CCNC(=O)[C@H]([C@@H](C)O)NC(=O)[C@H](CCN)NC(=O)[C@H](CCN)NC(=O)[C@H](CC(C)C)NC(=O)[C@@H](Cc2ccccc2)NC(=O)[C@H](CCN)NC1=O)[C@@H](C)O (X1-[Dab]T[Dab][Dab][Dab][dF]L[Dab][Dab]T; lactam 4-C) | > 64 µg/mL | > 64 µg/mL | 4 µg/mL (≈ 3.32 µM) | 16 µg/mL (≈ 13.3 µM) | < 0.06 µg/mL | 0.5 µg/mL (≈ 0.415 µM) | ≤ 0.06 µg/mL | ≤ 0.06 µg/mL | 0.125 µg/mL (≈ 0.104 µM) | 0.25 µg/mL (≈ 0.208 µM) | ≤ 0.06 µg/mL | 0.25 µg/mL (≈ 0.208 µM) | 0.125 µg/mL (≈ 0.104 µM) | 0.25 µg/mL (≈ 0.208 µM) | 0.5 µg/mL (≈ 0.415 µM) | ≤ 0.06 µg/mL | ≤ 0.06 µg/mL | 0.25 µg/mL (≈ 0.208 µM) | 0.05 µg/mL (≈ 0.0415 µM) | 0.2 µg/mL (≈ 0.166 µM) | MIC (Klebsiella pneumoniae [21]): 1 µg/mL (≈ 0.831 µM); MIC (Acinetobacter baumannii [22]): 1 µg/mL (≈ 0.831 µM)
2 | CCCCCCC[C@@H](O)CC(=O)N[C@H](CCN)C(=O)N[C@H]1CCNC(=O)[C@H](CC(C)C)NC(=O)[C@H](CCN)NC(=O)[C@H](CCN)NC(=O)[C@H](CC(C)C)NC(=O)[C@@H](Cc2ccccc2)NC(=O)[C@H](CCN)NC1=O ({Decanoyl(3R-OH)}-[dDab][Dab][Dab][dF]L[Dab][Dab]L; lactam 2-C) | 16 µg/mL (≈ 15.3 µM) | 16 µg/mL (≈ 15.3 µM) | 2 µg/mL (≈ 1.92 µM) | 4 µg/mL (≈ 3.83 µM) | 8 µg/mL (≈ 7.66 µM) | 8 µg/mL (≈ 7.66 µM) | 16 µg/mL (≈ 15.3 µM) | 2 µg/mL (≈ 1.92 µM) | 8 µg/mL (≈ 7.66 µM) | 8 µg/mL (≈ 7.66 µM) | 8 µg/mL (≈ 7.66 µM) | 2 µg/mL (≈ 1.92 µM) | 4 µg/mL (≈ 3.83 µM) | 2 µg/mL (≈ 1.92 µM) | 2 µg/mL (≈ 1.92 µM) | 4 µg/mL (≈ 3.83 µM) | 8 µg/mL (≈ 7.66 µM) | – | 0.1 µg/mL (≈ 0.0958 µM) | 0.4 µg/mL (≈ 0.383 µM) | IC50 at 72 h [23]: 14.2 µg/mL (≈ 13.6 µM); selectivity ratio [24]: 1.8; fraction unbound at 6 h, 2 µM [25]: 0.0805; MIC (Klebsiella pneumoniae [21]): 0.78 µg/mL (≈ 0.747 µM); MIC (Acinetobacter baumannii [22]): 4 µg/mL (≈ 3.83 µM); MIC (Staphylococcus aureus [26]): 3.1 µg/mL (≈ 2.97 µM); MIC [27]: 0.6 µg/mL (≈ 0.575 µM); MIC (Candida albicans): 4.7 µg/mL (≈ 4.5 µM)
3 | C[C@@H](O)[C@H]1C(=O)N2C(C(=O)O)=C(S[C@@H]3CN[C@H](C(=O)N(C)C)C3)[C@H](C)[C@H]12 [MEROPENEM] | – | 0.125 µg/mL (≈ 0.326 µM) | 2 µg/mL (≈ 5.22 µM) | 2 µg/mL (≈ 5.22 µM) | 0.25 µg/mL (≈ 0.652 µM) | < 0.06 µg/mL | ≤ 0.06 µg/mL | 4 µg/mL (≈ 10.4 µM) | 64 µg/mL (≈ 167 µM) | > 64 µg/mL | – | 0.5 µg/mL (≈ 1.3 µM) | – | 32 µg/mL (≈ 83.4 µM) | 1 µg/mL (≈ 2.61 µM) | – | 64 µg/mL (≈ 167 µM) | 0.06 µg/mL (≈ 0.156 µM) | – | – | Activity (Cell membrane): inactive
